Data on one compound can be found in ChEMBL document CHEMBL1131517, “4,4,14 alpha-trimethyl 9 beta,19-cyclo-5 alpha-26-homocholesta-24,26-dien-3 beta-ol: a potent mechanism-based inactivator of delta 24(25)- to delta 25(27)-sterol methyl transferase” (Bioorg Med Chem Lett, 1998).

One experiment concerns Prototheca wickerhamii. Put plainly: Compound was tested for inactivation of sterol methyl transferase( SMT) enzyme in Prototheca wickerhamii.
Experiment [1] in a line: Compound was tested for inactivation of sterol methyl transferase (SMT) enzyme in Prototheca wickerhamii.

Turning to `C=C/C(C)=C/CC[C@@H](C)C1CC[C@@]2(C)C3CCC4C(C)(C)C(O)CCC45CC35CCC12C` (some centres not stated), in the experiment on Prototheca wickerhamii, the K inact was found to be 0.3 min⁻¹. This compound came in with a Ki in experiment [1] of 30 µM.
